This assay addresses T1, SynLPD (dihydrolipoyl dehydrogenase, E3 subunit of the PDH complex) (Synechocystis sp. PCC 6803, UniProt P72740).
T1 construct: gene lpdA
T1 sequence (P72740 2-474): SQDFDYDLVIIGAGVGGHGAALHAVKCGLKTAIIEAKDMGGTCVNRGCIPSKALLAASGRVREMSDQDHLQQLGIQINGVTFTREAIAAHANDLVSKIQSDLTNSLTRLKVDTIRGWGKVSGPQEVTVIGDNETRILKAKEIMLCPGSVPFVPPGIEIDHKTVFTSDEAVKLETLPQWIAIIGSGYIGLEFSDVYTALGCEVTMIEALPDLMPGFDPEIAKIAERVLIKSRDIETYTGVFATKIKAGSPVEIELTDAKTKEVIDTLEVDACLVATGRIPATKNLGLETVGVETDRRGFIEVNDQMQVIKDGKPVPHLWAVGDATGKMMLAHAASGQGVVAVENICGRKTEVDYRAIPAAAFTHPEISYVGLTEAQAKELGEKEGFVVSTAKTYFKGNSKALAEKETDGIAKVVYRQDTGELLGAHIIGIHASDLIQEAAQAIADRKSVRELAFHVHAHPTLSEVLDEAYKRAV
In words: NAD+ reduction at […] nm; Ki from slopes of Lineweaver-Burk plots. The class given is biochemical.

Among the data in paper PMC8887894, “Pyruvate:ferredoxin oxidoreductase and low abundant ferredoxins support aerobic photomixotrophic growth in cyanobacteria” (eLife, 2022) are Ki values, retold here.

`NC(=O)C1=CN([C@@H]2O[C@H](COP(=O)(O)OP(=O)(O)OC[C@H]3O[C@@H](n4cnc5c(N)ncnc54)[C@H](O)[C@@H]3O)[C@@H](O)[C@H]2O)C=CC1` [NADH] came in with a Ki of 38.3 µM. This counts as double-digit micromolar.

What is called Ki is a dissociation constant, usually derived from enzyme kinetics or from competition with a known ligand.
